# Patent US7781580B2, “Stilbene derivatives as new cancer therapeutic agents” (Virginia Commonwealth University, priority 2007, dated 2010)
# Like-named read-outs stand apart in the source and are kept apart here.
# Experiments:
# [1] = water solubility of stilbene and carbamate prodrug (salts and free base); format: physicochemical
# Method: Stilbene prodrugs may be made by attaching to a stilbene derivative of interest (e.g. a stilbene derivative with anti-tumor activity), chemical groups (or moieties) that render the stilbene derivative more water soluble than before such a modification is carried out. By “water soluble” we mean that more than 20 mg compound can be fully dissolved in 1 mL of water. Further, the chemical groups that are attached to the stilbene derivative to make the derivative water soluble are labile (i.e. removable) in that, upon exposure to in vitro or in vivo hydrolyzing conditions, the chemical groups are removed or dissociated from the stilbene derivative by hydrolysis, releasing the active, anti-tumor form of the stilbene derivative. The chemical groups which are attached may themselves be biologically active, and are, at least, not biologically injurious to cells or mammals. […] As illustrated, morfolinoethyl-urea, morfolinoethyl-carbamate and triethylene glycol (TEG) groups (5a, 5b, 5c, respectively) may be used for this purpose.
# [2] = tested on: UCI101 ovarian cancer cells; assay: Alamar Blue cell growth inhibition, UCI101; format: cell-based; conditions: UCI101, 48 hours
# Method: Cell growth was measured by AlamarBlue™ staining and the percentage of cell growth inhibition was calculated and compared with the control cells that were treated with 0.1% DMSO, the vehicles for the stilbene compounds.
# Cells were treated with the tested drug for 2 days before analysis of cell growth by Alamar Blue™ staining. Cells treated with 0.1% DMSO were used as control and set as 100%.
# (a) In vitro sensitivity of UCI101 cells toward three potential stilbene prodrugs, 5a-c, was tested in 96-well plates using Alamar Blue™ assays to determine cell growth inhibition. […] (b) 5b induces cell cycle change and apoptosis in UCI101 cells. Cells were incubated with 5b at 1, 3, 10 μM for 16 hours followed by PI staining and flow cytometry analysis. A subG0/1 population, representing apoptotic cells, appeared along with a decrease of the G1/G2 ratio after cells were treated with 3 μM 5b. Higher concentration (10 μM) of 5b completely killed cells, as was the case with stilbene 4a at […]. (c) Cells treated with stilbene 4a and 5b were stained with phospho-histone 3B, a mitotic marker. The positive signals of phospho-histone 3B were shown in green and nuclei were stained with DAPI in blue. […] (d) In vivo efficacy of 5b compared with stilbene 4a. Nude mice were injected with UCI101 ovarian cancer cells and treated with 7 doses of 5b,c or stilbene 4a every 2-3 days. Tumor volume was calculated and plotted against days.
# (§1) Various cancer cell lines were grown in 96-well plates for drug sensitivity assays. Once cells achieved 50% confluence, the incubation media was changed to the same cell growth media with different concentrations of the tested compounds or vehicle alone. Cells were then incubated for 48 hours before the cell growth inhibition study. To determine the degree of cell growth inhibition, 1/10 volume of Alamar Blue™ solution was added to each well and optical density (OD) at 570 and 600 nm was determined. The percentage of growth inhibition was calculated according to the manufacturer's formula as follows: The percentage of growth is [(117216×A570)−(80586×A600)]/[(117216×A^o570)−(80586×A^o600)]×100. In this formula, A570 is the absorbance of the treated samples at 570 nm; A600 is the absorbance of the treated samples at 600 nm; A^o570 is the absorbance of the […] samples at 570 nm; and A^o600 is the absorbance of the untreated samples at 600 nm. The two constants, 117216 and 80586, are the extinction coefficients of Alamar Blue™ at 570 and 600 nm respectively. Each concentration was repeated in triplicate to minimize the error.
# (§2) We first tested the cytotoxic effect of various stilbene derivatives for their in vitro efficacy of suppressing tumor cell proliferation. Cells were first plated in 96-well plates at 50% confluence and treated with 0, 0.01, 0.03, 0.1, 0.3, 1.0, 3.0, 10 μM concentrations of stilbene derivatives for 48 hours in triplicate. Alamar Blue™ reagent was added into each well at 1/10 volume and incubated for 2 hours before quantification of the absorbance at 570 and 600 nm.
# [3] = tested on: tumor cell proliferation; assay: suppression of tumor cell proliferation, cell line not stated; format: cell-based; conditions: read-out: IC50, suppressing tumor cell proliferation
# Method: as §1
# [4] = tested on: SNU423 hepatocellular carcinoma cells; assay: Alamar Blue cell growth inhibition, SNU423; format: cell-based
# In short: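 Cells at 50% confluence were treated for 48 h in triplicate with 0-10 μM compound or 0.1% DMSO vehicle. Alamar Blue was added at 1/10 volume for 2 h, and absorbance at 570 and 600 nm gave % growth via the manufacturer's extinction-coefficient formula relative to vehicle controls.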
# [5] = tested on: MiaPaCa2 pancreatic cancer cells; assay: Alamar Blue cell growth inhibition, MiaPaCa2; format: cell-based
# Method: as §1, §2
# [6] = tested on: MDA-MB231 breast cancer cells; assay: Alamar Blue cell growth inhibition, MDA-MB231; format: cell-based
# Method: Cell growth was measured by Alamar Blue™ staining and the percentage of cell growth inhibition was calculated and compared with control cells that were treated with 0.1% DMSO, the vehicles for the stilbene compounds.
# as §1, §2
# [7] = tested on: Chk1−/− cells; assay: cell cycle analysis, Chk1-/- MDA-MB231 derivative; format: cell-based
# Method: (§3) Due to the structural similarity between stilbene 4a and CA4, we investigated the difference in the biological activity of these two compounds in MDA-MB231 breast cancer cells and their Chk2−/− derivatives. […] MDA-MB231 cells were treated with 10 nM stilbene 4a or 1 nM CA4. […] However, a difference in cell cycle change was observed following treatment with 30 nM of stilbene 4a versus 3 nM of CA4. […] This was also the case for cells treated with 100 nM stilbene 4a. A significant subG1/0 population was also noted. […] One possible effect could be a DNA damage response, which is a common mechanism of multiple chemotherapeutic agents but not one of pure microtubule-interfering agents such a paclitaxel or vincristine. […] We then obtained conditional Chk1−/− and Chk2−/− cells, which were derived from the same MDA-MB231 cells for the same flow cytometry analysis. […] In contrast, Chk2−/− cells were more sensitive to stilbene 4a. […] This mechanism is not obvious in higher drug concentrations at which the G2 arrest from microtubule interference is dominant. Therefore, in addition to their microtubule interfering effect, stilbenes have another mechanism to induce cell death. Thus, the use of a Chk2 inhibitor in combination with stilbenes may be a viable approach to enhancing the beneficial therapeutic effects of stilbenes.
# [8] = tested on: UCI101 cells; assay: immunofluorescent staining of tubulin, UCI101; format: cell-based; conditions: CA4 10 nM, stilbene 4a 100 nM, 5b 3 μM; 16 hours
# Excerpt: Nuclei were stained with DAPI.
# [9] = tested on: MDA-MB231 breast cancer cells; assay: cell cycle analysis, MDA-MB231; format: cell-based; conditions: 16 hours
# Method: (§4) Cells were treated with various concentrations of stilbene 4a or CA4 for 16 hours followed by PI staining and FACscan analysis. […] A unique feature of stilbene 4a was noted when cells were treated with 30 nM.
# as §3
# [10] = tested on: MDA-MB231 cells; assay: immunofluorescent staining of tubulin, MDA-MB231; format: cell-based; conditions: CA4 10 nM, stilbene 4a 100 nM, vincristine 100 nM, 5b 3 μM; 16 hours
# Excerpt: Nuclei were stained with 4′,6-diamidino-2-phenylindole (DAPI). Control cells show the reticular pattern of the microtubule network.
# [11] = tested on: SKOV3 ovarian cancer cells; assay: Alamar Blue cell growth inhibition, SKOV3; format: cell-based
# Method: Cells were incubated with various concentrations of the compounds for 48 hours. Cell growth was measured by Alamar Blue™ staining and the percentage of cell growth inhibition was calculated and compared with the control cells that were treated with 0.1% DMSO, the vehicle for the stilbene compounds.
# as §1
# [12] = tested on: UCI101 ovarian cancer cells; assay: Western blot of signal transduction events, UCI101; format: cell-based; conditions: 36 hours
# Method: All these agents are microtubule interfering agents but with different binding sites. Cells were harvested at 0, 4, 8, 16 and 36 hours after drug treatment for Western blot analysis. […] Phosphorylation of both Cdc25C and Cdc2 disappeared after 16 hours and slightly recovered at 36 hours. […] Akt phosphorylation decreased after 16 hours of treatment.
# In order to understand the mechanism of resistance of stilbenes, various signal transduction pathways were investigated to examine how cells respond to stilbene treatment. UCI101 ovarian cancer cells were treated with stilbenes 4a, 4c or paclitaxel (Taxol) at 0.1 μM for 0, 4, 8, 16 and 36 hours. Cells were harvested for Western blotting. Changes in the kinases involved in cell cycle progression from G2-M transition were first determined in Cdc2, Cdc25c, and mitotic spindle check point regulator BubR1. […] 36 hours after treatment, rephosphorylation of Cdc2 was observed. […] The higher molecular weight isomer of Cdc25c, the mitotic form, increased at 16 and 36 hours. […] A similar study was then performed with other microtubule interfering agents such as combretastatin A4, 13a and vincristine for comparison. A similar trend was observed among these three microtubule interfering agents (FIG. 18).
# [13] = clinical studies; cited from earlier work
# [14] = tested on: Chk2−/− cells; assay: cell cycle analysis, Chk2-/- MDA-MB231 derivative; format: cell-based; conditions: 16 hours
# Method: as §4, §3
"IC50 ([4]; Homo sapiens, SNU-423, 48 h, read-out: IC50 (50% growth inhibition), SNU423, 48 hours)",IC50 ([3]; cell line not stated),Structure (SMILES),water solubility (in words) [1],relative potency / activity [2],IC50 [3],"effective concentration ([5]; MiaPaCa2, 48 hours)","effective concentration ([6]; MDA-MB231, 48 hours)",sensitivity versus MDA-MB231 [7],relative potency ([4]; SNU423),"effective concentration, blocking cell proliferation ([4]; SNU423, 48 hours)",microtubule pattern [8],cell cycle change at 10 nM stilbene 4a or 1 nM CA4 [9],microtubule pattern [10],effective concentration ([11]; SKOV),"effective / active concentration ([11]; SKOV3, 48 hours)",relative potency ([5]; MiaPaCa2),phosphorylation of Chk1 [12],"dose above which cardiac toxicity, neurotoxicity and tumor pain were observed [13]",change of effective concentration versus MDA-MB231 [14],relative potency ([6]; MDA-MB231)
–,–,"COc1cc(/C=C\c2ccc(OC)cc2N)cc(OC)c1.O=C(O)C(=O)O [4b, (Z)2-[2-(3,5-Dimethoxy-phenyl)-vinyl]-5-methoxy-phenylamine oxalate]",enhanced by the formation of an oxalate salt,less active than stilbene 4a,80 nM,–,–,–,–,–,–,–,–,–,–,–,–,–,–,–
300 to 1000 nM,1000 nM,"COc1cc(O)cc(/C=C\c2ccc(OC)c(N)c2)c1.Cl [10d, (Z)-3-[2-(3-Amino-4-methoxy-phenyl)-vinyl]-5-methoxy-phenol, hydrochloride]",–,less active than stilbene 4a,–,above 0.3 μM,above 0.3 μM,–,–,–,–,–,–,–,–,–,–,–,–,–
–,–,"COc1ccc(/C=C\c2cc(OC)c(OC)c(OC)c2)cc1O [combretastatin A4, (Z)-2-Methoxy-5-[2-(3,4,5-trimethoxy-phenyl)-vinyl]-phenol, reference compound]",–,most active compound,–,–,–,more resistant,most potent compound,0.003 µM,complete disruption of microtubules,No change was observed,did not completely disrupt microtubule formation,10 nM,0.01 µM,most effective,do not cause more phosphorylation of Chk1,higher than 68 mg/m^2,decreased by three fold,most effective
